Assay [1] addresses T1, hVEGF(8-109) (Homo sapiens, UniProt P15692).
T1 construct: hVEGF(8-109) or BSA were coated on 384-well MAXISORP™ immunoplates
T1 sequence (P15692 214-315): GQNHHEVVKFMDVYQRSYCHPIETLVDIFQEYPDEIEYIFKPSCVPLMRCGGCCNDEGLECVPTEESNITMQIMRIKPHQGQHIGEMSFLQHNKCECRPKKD
Put plainly: Spot phage ELISA. Particulars: Table 24. In kind it is binding. In short, it runs like this: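 Clones counted positive when hVEGF(8-109) signal exceeded BSA background by over 3-fold, per spot ELISA using anti-M13-HRP/TMB detection. Phage came from overnight 37° C. cultures of individual clones picked after four binding rounds, supernatant diluted 1:3.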
On the technique in general: In an ELISA, binding on a coated surface is turned into a signal by an enzyme label.

In assay [2] the target is T2, hVEGF-A (8-109) (Homo sapiens, UniProt P15692).
T2 sequence (P15692 214-315): T1 sequence (P15692 214-315)
Nature of the assay: Phage competition ELISA. The assay is classed as binding.

In assay [3] the target is T3, VEGF-A and KDR (Homo sapiens, UniProt P15692).
T3 sequence (P15692 207-395): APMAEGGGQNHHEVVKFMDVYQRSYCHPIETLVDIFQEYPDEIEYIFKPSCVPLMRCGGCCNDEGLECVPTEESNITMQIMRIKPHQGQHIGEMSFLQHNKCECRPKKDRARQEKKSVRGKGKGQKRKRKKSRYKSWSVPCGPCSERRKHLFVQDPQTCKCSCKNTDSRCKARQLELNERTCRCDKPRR
Nature of the assay: Competition ELISA, KDR-VEGF interaction. The assay is classed as binding. The protocol:
Binding specificity of each peptide was established by competition ELISA. […] After blocking with block buffer (PBS with 0.5% BSA and 0.05% TWEEN®20) for 2 hours at room temperature, the receptor-Fc fusions or biotinylated receptors were serially diluted using assay buffer (PBS with 0.5% BSA and 0.05% TWEEN®20) and incubated for 1 hour at room temperature. […] Competition ELISA was conducted in an identical fashion as described above except after blocking, a mixture of serially diluted peptide containing a constant concentration of receptor-Fc fusion or biotinylated receptor (concentration of receptor was set to EC60) was added and incubated for 1 hour. All recombinant human proteins and antibodies were purchased from R &D Systems (Minneapolis, Minn.).

Assay [4] concerns the target T4, VEGF human 165 (Homo sapiens, UniProt P15692).
T4 sequence (P15692 27-191 isoform P15692-4): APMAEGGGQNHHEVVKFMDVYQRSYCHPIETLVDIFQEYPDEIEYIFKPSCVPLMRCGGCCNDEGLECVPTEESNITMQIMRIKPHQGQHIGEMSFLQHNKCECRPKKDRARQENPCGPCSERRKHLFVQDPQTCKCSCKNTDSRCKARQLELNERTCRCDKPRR
Nature of the assay: SPR binding assay. The protocol: (§1) Depending on the format of the assay either a streptavidin sensor (SA) or a dextran-coated (CM5) sensor was utilized as described below.
(§2) For use with the SA sensor, VEGF-A was first biotinylated (no more than 2 biotin/VEGF-A) by incubating the protein with EZ-link NHS-PEG4-Biotin (Pierce) in a 1:1.5 molar ratio respectively, in PBS for 2 hours on ice. Reaction was then quenched by addition of 10 molar excess of Glycine pH 8.0 and the sample was buffer exchanged into PBS using an Amicon 0.5 mL 3000 MWCO ultra-centrifugal filters (EMD Millipore). The biotinylation state of the protein was verified by LC-MS analysis. Biotinylated VEGF-A was then captured on the surface until a resonance unit (RU) signal of about ˜400. For immobilization of VEGF-A on CM5 sensor, the surface was first activated with a mixture of N-ethyl-N′-(3-dimethylaminopropyl)carbodiimide hydrochloride and N-hydroxysuccinimide (EDC/NHS) according to the supplier instructions. VEGF-A was then diluted into coupling buffer (0.1 M Acetate Buffer, pH 5.0) and injected until the signal reached about ˜400 RU followed by a wash with 1 M ethanolamine pH 8.0 to quench remaining activated sites.
(§3) Following the capture step, a series of the peptide concentrations were prepared in HBS-EP buffer with matching DMSO concentrations to 0.1% and injected at a flow rate of […]. The resulting sensorgrams were then analyzed using a 1:1 binding model to obtain kinetic data and affinities using Scrubber 2.0 (BioLogic Software).
(In general: In SPR one partner is held on a chip, and binding of the other changes the refractive index at the surface.)

The target in assay [5] is T5, VEGF mouse 164 (Mus musculus, UniProt Q00731).
T5 sequence (Q00731 27-190 isoform Q00731-2): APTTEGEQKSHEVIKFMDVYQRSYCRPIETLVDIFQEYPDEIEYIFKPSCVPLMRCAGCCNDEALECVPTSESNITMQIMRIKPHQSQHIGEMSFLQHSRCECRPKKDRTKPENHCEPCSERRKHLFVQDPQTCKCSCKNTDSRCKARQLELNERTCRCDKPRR
Put plainly: SPR binding assay. As to the method:
as §1, §2, §3

The target of assay [6] is T6, rabbit VEGF-A (Oryctolagus cuniculus, UniProt G1T1L9).
T6 sequence (G1T1L9 1-398): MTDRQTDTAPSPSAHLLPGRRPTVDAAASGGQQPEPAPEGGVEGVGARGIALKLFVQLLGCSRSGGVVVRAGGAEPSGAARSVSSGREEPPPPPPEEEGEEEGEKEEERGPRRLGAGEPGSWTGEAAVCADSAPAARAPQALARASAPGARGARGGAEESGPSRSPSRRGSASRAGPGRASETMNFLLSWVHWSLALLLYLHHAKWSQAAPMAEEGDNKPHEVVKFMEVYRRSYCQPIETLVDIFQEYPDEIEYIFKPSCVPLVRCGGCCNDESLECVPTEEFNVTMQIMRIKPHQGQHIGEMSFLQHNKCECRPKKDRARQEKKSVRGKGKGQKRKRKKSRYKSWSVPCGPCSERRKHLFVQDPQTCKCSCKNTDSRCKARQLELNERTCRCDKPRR
Put plainly: SPR binding assay. As to the method:
as §1, §2, §3

The target in assay [7] is T7, rat VEGF-A (Rattus norvegicus, UniProt P16612).
T7 sequence (P16612 27-139 limits assumed): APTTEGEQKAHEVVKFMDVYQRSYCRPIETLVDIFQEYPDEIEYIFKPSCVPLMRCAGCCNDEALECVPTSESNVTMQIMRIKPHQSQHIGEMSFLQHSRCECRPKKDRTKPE
Put plainly: SPR binding assay. The protocol:
as §1, §2, §3

Molecules are shown by their SMILES. Positions of bridges follow the written chain, without caps; N, C: chain ends. Residues, ends and D or L forms follow the SMILES beside them.

The values below come from US11155586B2, “Cystine knot scaffold platform” (Genentech, Inc., priority 2015, dated 2021).

By IC50 is commonly meant the midpoint of a concentration-inhibition curve. High values mean weaker potency in that assay, low ones greater potency in that assay. The term Kd denotes the constant that tells how readily two partners part at equilibrium. Read a low Kd as a tighter complex.

Consider `CSCC[C@@H]1NC(=O)[C@H](C(C)C)NC(=O)[C@H](CC(=O)O)NC(=O)[C@@H](NC(=O)CN)CSSC[C@@H](C(=O)N[C@H](C(=O)N[C@H]2CSSC[C@@H](C(=O)NCC(=O)O)NC(=O)[C@H](CO)NC(=O)[C@H](CC(N)=O)NC(=O)[C@H](Cc3ccc(O)cc3)NC(=O)[C@H](Cc3c[nH]c4ccccc34)NC(=O)[C@H](Cc3c[nH]cn3)NC2=O)C(C)C)NC(=O)CNC(=O)[C@H](C)NC(=O)[C@H](CC(C)C)NC(=O)[C@@H]2CSSC[C@H](NC(=O)CNC(=O)[C@H](Cc3c[nH]c4ccccc34)NC(=O)[C@H](Cc3ccc(O)cc3)NC(=O)[C@@H]3CCCN3C(=O)[C@H](CCC(N)=O)NC1=O)C(=O)N[C@@H](CCCCN)C(=O)N[C@@H](CCC(N)=O)C(=O)N[C@@H](CC(=O)O)C(=O)N[C@@H](CO)C(=O)N[C@@H](CC(=O)O)C(=O)N2` [VEGF_CKP9.63] (H-GCDVMQPYWGCKQDSDCLAGCVCHWYNSCG-OH; disulfide 2-21, 11-17, 23-29 (inferred); N-terminus and C-terminus assumed), for which, in assay [1], the “S/N (signal to noise ratio as compared to BSA control)” value was 29.7. In addition, the ELISA in assay [1] (VEGF_CKP9 Loop1/Loop5 affinity-matured variants) stood at 2.0. Moreover, the figures for the IC50 in assay [2] and in assay [3] were 146 nM and 10.8 nM, respectively. Besides, the Kd in assay [4] is 382 nM; in assay [5], 289 nM; in assay [6] it was 311 nM; in assay [7] it was 524 nM. Moreover, the ka is given as 3.40 × 10^5 in assay [4] (human 165, Table 30); 5.57 × 10^5 in assay [5] (mouse 164, Table 30); 4.24 × 10^5 in assay [6] (rabbit, Table 30); 4.56 × 10^5 in assay [7] (rat, Table 30). Further, the kd in assay [4] (human 165, Table 30) is on record as 1.30 × 10^−1; in assay [5] (mouse 164, Table 30), 1.60 × 10^−1; in assay [6] (rabbit, Table 30), 1.30 × 10^−1; in assay [7] (rat, Table 30) it was 2.46 × 10^−1.
